{"source": "patent US20230414701A1", "about": "“COMPOSITION FOR PREVENTING, AMELIORATING, OR TREATING COGNITIVE DYSFUNCTION DISEASE, COMPRISING PEPTIDE HAVING SYNAPTIC PLASTICITY CONTROL FUNCTION” (UIF (University Industry Foundation), Yonsei University, priority 2020, published 2023)", "key": {"[1]": {"system": "hippocampal tissue section from APP/PS1 Alzheimer's disease animal model", "experiment": "fEPSP amplitude (long-term potentiation) in hippocampal tissue sections", "set-up": "species or system mouse", "conditions": "1 μM, 1 hour and 40 minutes, compared to control peptide material; FIG. 6", "method": "Specifically, the brain was extracted from an APP/PS1 Alzheimer's disease animal model, and then transferred to a 4° C. sucrose-artificial cerebrospinal fluid solution (195.5 sucrose, 2.5 KC1, 1 NaH2PO4, 32.5 NaHCO3, 11 glucose, 2 NaPyruvate, 1 NaL-ascorbate, 5 MgSO4, 0.5 CaCl2 (95% O2/5% CO2). Subsequently, brain tissue was cut into coronal sections (400 μm) using a microtome, a hippocampal tissue section was transferred to a 35° C. artificial cerebrospinal fluid solution (128.5 NaCl2, 2.5 KCl, 1 NaH2PO4, 21.7 NaHCO3, 11 glucose, 2 NaPyruvate, 1 NaL-ascorbate, 5 MgSO4, 1 CaCl2 (95% O2/5% CO2)) and incubated for 30 minutes to restore the function of the tissue. Subsequently, an experiment was performed for 1 hour and 40 minutes while flowing MIC-1 according to the present invention at a concentration of 1 μM from the beginning until the end of the experiment using gravity, and then the amplitude of field excitatory postsynaptic potential (fEPSP) was measured."}, "[2]": {"system": "ICR mouse models", "experiment": "Y-maze behavioral experiment, scopolamine-induced memory loss", "type": "in vivo", "conditions": "20 mpK intravenous twice for one week, then scopolamine 1 mpK i.p. 30 minutes before test; 7-week-old male ICR mice; FIG. 8", "method": "In Example 6-1, it was confirmed that MIC-1 can enhance the expression level of the PSD-95 protein known to be associated with cognitive function, and based on this, a behavioral experiment for mouse models was designed. Specifically, among ICR mouse models, 7-week-old male mouse models were used and divided into a control and two experimental groups (scopolamine-treated group and group administered MIC-1 and then treated with scopolamine) to perform the experiment.\nMIC-1 was administered into a mouse twice via intravenous administration at 20 mpK for one week. […] Therefore, to induce such memory loss, 30 minutes before the Y-maze behavioral experiment, scopolamine was intraperitoneally administered at 1 mpK to the experimental groups, resulting in memory deterioration."}, "[3]": {"target": "CCNY protein (Homo sapiens, UniProt Q8ND76)", "sequence (Q8ND76 whole entry, species assumed)": "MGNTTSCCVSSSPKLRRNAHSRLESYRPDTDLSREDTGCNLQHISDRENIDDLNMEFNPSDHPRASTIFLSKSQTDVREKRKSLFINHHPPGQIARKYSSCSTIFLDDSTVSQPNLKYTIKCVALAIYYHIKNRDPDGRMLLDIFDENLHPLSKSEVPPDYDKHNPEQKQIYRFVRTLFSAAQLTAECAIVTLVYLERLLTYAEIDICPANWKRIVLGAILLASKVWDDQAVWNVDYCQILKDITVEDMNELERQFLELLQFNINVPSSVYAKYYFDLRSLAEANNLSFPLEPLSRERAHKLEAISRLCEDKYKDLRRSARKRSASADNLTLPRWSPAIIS", "experiment": "ELISA of binding capacity of peptides to CCNY", "conditions": "treated at 10, 100 or 1000 μg/mL; CCNY immobilized on plate; FIG. 5", "method": "To examine which of MIC-1 and cyclo MIC-1 according to the present invention easily binds to CCNY, the present inventors conducted an experiment using ELISA. To this end, CCNY was immobilized on a plate, MIC-1 and cyclo MIC-1 were treated at 10, 100 or 1000μg/mL, biotin was bound to the MIC-1 and cyclo MIC-1, and then the optical density of HRP was measured after treating streptavidin-HRP."}, "[4]": {"system": "PSD-95 protein", "experiment": "Western blotting of PSD-95 protein expression in Aβ42-treated cells", "type": "cell-based", "conditions": "FIG. 7", "method": "To identify what role MIC-1 plays in improving the cognitive function of MIC-1 according to the present invention, the present inventors, as shown in Example 5, an experiment was performed as follows. Specifically, the change in expression level of the PSD-95 protein known to play an important role in cognitive function was analyzed through Western blotting using a 12% acrylamide gel. For example, it is known that, when cells are treated with Aβ42, compared to normal cells, the amount of PSD-95 protein decreases and cognitive function decreases, resulting in deterioration of memory."}}}
{"substance": "MIC-1: Peptide of SEQ ID NO: 1 (PFTAIRE sequence of Cdk14) in which both termini are modified (Ac-PFTAIRE-NH2)", "values": [{"measurement": "fEPSP amplitude", "setting": "[1]", "result": "the fEPSP amplitude increases"}, {"measurement": "alternation (memory) in Y-maze", "setting": "[2]", "result": "the memory is improved up to the control level"}, {"measurement": "binding to the CCNY protein (ELISA, optical density of HRP)", "setting": "[3]", "result": "can remarkably bind to the CCNY protein"}, {"measurement": "level of the PSD-95 protein", "setting": "[4]", "result": "the level of the PSD-95 protein is increased"}]}
